Here are results for 2 compounds from PMC7719162, “Positioning of an unprecedented spiro[5.5]undeca ring system into kinase inhibitor space” (Scientific Reports, 2020).

In experiment [1] the target is T1, TLK1 (Homo sapiens, UniProt Q9UKI8).
T1 construct: purchased Reaction Biology Corp
T1 sequence (Q9UKI8 1-766): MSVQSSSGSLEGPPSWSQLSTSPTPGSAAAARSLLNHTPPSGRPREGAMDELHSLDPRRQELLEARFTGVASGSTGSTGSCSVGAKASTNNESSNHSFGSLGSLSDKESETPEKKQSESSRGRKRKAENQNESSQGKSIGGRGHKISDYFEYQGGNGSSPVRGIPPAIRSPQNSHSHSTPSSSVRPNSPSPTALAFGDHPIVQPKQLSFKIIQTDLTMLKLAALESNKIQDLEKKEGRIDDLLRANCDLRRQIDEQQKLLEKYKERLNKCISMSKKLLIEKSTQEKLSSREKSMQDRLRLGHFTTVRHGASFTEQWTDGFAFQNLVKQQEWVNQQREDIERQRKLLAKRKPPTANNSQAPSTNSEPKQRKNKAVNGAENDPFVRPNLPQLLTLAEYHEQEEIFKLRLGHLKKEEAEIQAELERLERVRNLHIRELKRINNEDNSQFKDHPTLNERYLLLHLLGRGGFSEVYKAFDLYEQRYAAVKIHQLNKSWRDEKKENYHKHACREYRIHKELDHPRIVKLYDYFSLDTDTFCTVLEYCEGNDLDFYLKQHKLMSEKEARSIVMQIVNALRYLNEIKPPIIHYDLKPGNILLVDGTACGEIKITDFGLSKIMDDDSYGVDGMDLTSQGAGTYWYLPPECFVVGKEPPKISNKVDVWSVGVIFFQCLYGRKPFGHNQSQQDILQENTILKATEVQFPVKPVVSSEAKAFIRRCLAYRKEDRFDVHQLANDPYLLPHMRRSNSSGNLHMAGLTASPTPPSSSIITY
Conditions: cited from earlier work.

Experiment [2] concerns the target T2, MST3/STK24 (Homo sapiens, UniProt Q9Y6E0).
T2 construct: purchased Reaction Biology Corp
Conditions: cited from earlier work.

Experiment [3] has as its target T3, GSK3b (Homo sapiens, UniProt P49841).
T3 construct: purchased Reaction Biology Corp
The following applies: cited from earlier work.

Experiment [4] has as its target T4, TRKC (G623R) (Homo sapiens, UniProt Q16288, G623R).
T4 construct: purchased Reaction Biology Corp
As to the kind of experiment: Kinase panel assay (radiolabelled). Conditions: 30 μM compound, ATP 10 μM, duplicates Data 1/Data 2. It counts as biochemical.

In experiment [5] the target is T5, CDK1/cyclin B (Homo sapiens, UniProt P06493).
T5 construct: purchased Reaction Biology Corp
Nature of the experiment: Kinase panel assay (radiolabelled). It counts as biochemical. Conditions: ATP 10 μM.

The target of experiment [6] is T6, PI3Kb (p110b/p85a) (Homo sapiens, UniProt P42338).
T6 construct: purchased Reaction Biology Corp
As to the kind of experiment: Kinase panel assay (lipid kinase). Conditions: 30 μM compound, ATP 10 μM, duplicates Data 1/Data 2. It counts as biochemical.

In experiment [7] the target is T7, TRKC (L686M) (Homo sapiens, UniProt Q16288, L686M).
T7 construct: purchased Reaction Biology Corp
As to the kind of experiment: Kinase panel assay (radiolabelled). It counts as biochemical. Conditions: 30 μM compound, ATP 10 μM, duplicates Data 1/Data 2.

The target in experiment [8] is T8, CDK2/cyclin O (Homo sapiens, UniProt P24941).
T8 construct: purchased Reaction Biology Corp
Nature of the experiment: Kinase panel assay (radiolabelled). In kind it is biochemical. Conditions: ATP 10 μM.

The target in experiment [9] is T9, PKCa (Homo sapiens, UniProt P17252).
T9 construct: purchased Reaction Biology Corp
As to the kind of experiment: Kinase panel assay (radiolabelled). It counts as biochemical. Conditions: ATP 10 μM.

Experiment [10] concerns the target T10, DAPK1 (Homo sapiens, UniProt P53355).
T10 construct: purchased Reaction Biology Corp
As to the kind of experiment: Kinase panel assay (radiolabelled). In kind it is biochemical. The following applies: ATP 10 μM.

Experiment [11] deals with T11, ROCK1 (Homo sapiens, UniProt Q13464).
T11 construct: purchased Reaction Biology Corp
As to the kind of experiment: Kinase panel assay (radiolabelled). It counts as biochemical. The following applies: ATP 10 μM.

For experiment [12], the target named is T12, PIP5K1A (Homo sapiens, UniProt Q99755).
T12 construct: purchased Reaction Biology Corp
As to the kind of experiment: Kinase panel assay (lipid kinase). In kind it is biochemical. Conditions: 30 μM compound, ATP 10 μM, duplicates Data 1/Data 2. The method, then:
(§1) Every inhibitory activity of tested compounds was measured by radiolabelled method of Reaction Biology Corp). The radiolabelled ATP ([γ-^33P] ATP) replaced a substrate with ^33P-phosphorylated substrate so that the activity of a kinase was measured from the radiolabelled phosphorylated substrate. Kinase panel assay was tested at 30 μM testing compounds with an ATP concentration of 10 μM and a substrate concentration of 10 μM. % Residual activity against GSK3β was measured at 10 uM compounds 1 and 2. […] Curve fits of control compounds were performed where the enzyme activities at the highest concentration of compounds were less than 65%. The concentration of DMSO was controlled and raw data, % kinase activity was calculated relative to DMSO controls.

The target in experiment [13] is T13, PI4K2A (Homo sapiens, UniProt Q9BTU6).
T13 construct: purchased Reaction Biology Corp
Nature of the experiment: Kinase panel assay (lipid kinase). It counts as biochemical. Conditions: 30 μM compound, ATP 10 μM, duplicates Data 1/Data 2. The protocol: as §1

The target of experiment [14] is T14, PI3KC3 (Homo sapiens, UniProt Q8NEB9).
T14 construct: purchased Reaction Biology Corp
Nature of the experiment: Kinase panel assay (lipid kinase). It counts as biochemical. The following applies: 30 μM compound, ATP 10 μM, duplicates Data 1/Data 2. The protocol:
as §1

Experiment [15] addresses T15, PIP5K1C (Homo sapiens, UniProt O60331).
T15 construct: purchased Reaction Biology Corp
As to the kind of experiment: Kinase panel assay (lipid kinase). It counts as biochemical. Conditions: 30 μM compound, ATP 10 μM, duplicates Data 1/Data 2. The protocol:
as §1

Experiment [16] has as its target T16, PI3KC2A (Homo sapiens, UniProt O00443).
T16 construct: purchased Reaction Biology Corp
As to the kind of experiment: Kinase panel assay (lipid kinase). It counts as biochemical. Conditions: 30 μM compound, ATP 10 μM, duplicates Data 1/Data 2. The protocol: as §1

The target in experiment [17] is T17, JNK1 (Homo sapiens, UniProt P45983).
T17 construct: purchased Reaction Biology Corp
Nature of the experiment: Kinase panel assay (radiolabelled). It counts as biochemical. The following applies: ATP 10 μM.

Experiment [18] deals with TRKA-TPR (Homo sapiens, UniProt P04629). Nature of the experiment: biochemical. The following applies: 30 μM compound, ATP 10 μM, duplicates Data 1/Data 2.
Experiment [19] addresses T18, AMPK(A1/B1/G2) (Homo sapiens, UniProt Q13131).
T18 construct: purchased Reaction Biology Corp
As to the kind of experiment: Kinase panel assay (radiolabelled). In kind it is biochemical. The following applies: 30 μM compound, ATP 10 μM; duplicates Data 1/Data 2.

Experiment [20] addresses T19, AMPK(A1/B1/G2) (Homo sapiens, UniProt Q13131+Q9UGJ0+Q9Y478).
T19 construct: purchased Reaction Biology Corp
Nature of the experiment: Kinase panel assay (radiolabelled). It counts as biochemical. Conditions: 30 μM compound, ATP 10 μM; duplicates Data 1/Data 2; read-out: % Enzyme Activity (relative to DMSO controls).

Experiment [21] has as its target T20, EIF2AK2 (Homo sapiens, UniProt P19525).
T20 construct: purchased Reaction Biology Corp
As to the kind of experiment: Kinase panel assay (radiolabelled). Conditions: 30 μM compound, ATP 10 μM, duplicates Data 1/Data 2. In kind it is biochemical.

Where [22] appears, read: read-out: % Enzyme Activity (relative to DMSO controls).
[23] abbreviates: 30 μM compound, duplicates Data 1/Data 2.
[24] abbreviates: 30 μM compound, duplicates Data 1/Data 2, read-out: % Enzyme Activity (relative to DMSO controls).
[25] abbreviates: 30 μM, average ± SD, read-out: % Residual Activity at 30 μM.

Where two headings read alike, the source gives them in different places.

T5 sequence (P06493 whole entry): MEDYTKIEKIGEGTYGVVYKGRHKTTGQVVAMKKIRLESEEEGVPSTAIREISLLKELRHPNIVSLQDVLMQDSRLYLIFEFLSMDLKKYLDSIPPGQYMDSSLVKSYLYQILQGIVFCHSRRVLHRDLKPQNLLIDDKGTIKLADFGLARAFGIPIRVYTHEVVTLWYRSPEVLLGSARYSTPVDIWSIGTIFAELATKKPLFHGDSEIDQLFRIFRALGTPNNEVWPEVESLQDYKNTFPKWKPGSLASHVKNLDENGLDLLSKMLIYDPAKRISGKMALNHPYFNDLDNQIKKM
T5 sequence (P14635 whole entry partner): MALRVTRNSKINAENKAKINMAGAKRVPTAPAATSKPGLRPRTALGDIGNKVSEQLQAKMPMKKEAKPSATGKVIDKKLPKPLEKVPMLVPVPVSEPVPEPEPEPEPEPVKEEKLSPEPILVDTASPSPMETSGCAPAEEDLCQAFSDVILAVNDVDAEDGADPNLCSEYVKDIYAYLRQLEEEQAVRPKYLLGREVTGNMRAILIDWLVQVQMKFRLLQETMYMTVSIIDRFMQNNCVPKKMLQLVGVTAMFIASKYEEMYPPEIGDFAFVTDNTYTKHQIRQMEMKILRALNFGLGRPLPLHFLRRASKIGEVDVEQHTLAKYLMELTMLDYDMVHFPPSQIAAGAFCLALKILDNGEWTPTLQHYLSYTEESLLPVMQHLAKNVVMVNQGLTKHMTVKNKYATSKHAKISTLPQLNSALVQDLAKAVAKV
T11 sequence (Q13464 whole entry): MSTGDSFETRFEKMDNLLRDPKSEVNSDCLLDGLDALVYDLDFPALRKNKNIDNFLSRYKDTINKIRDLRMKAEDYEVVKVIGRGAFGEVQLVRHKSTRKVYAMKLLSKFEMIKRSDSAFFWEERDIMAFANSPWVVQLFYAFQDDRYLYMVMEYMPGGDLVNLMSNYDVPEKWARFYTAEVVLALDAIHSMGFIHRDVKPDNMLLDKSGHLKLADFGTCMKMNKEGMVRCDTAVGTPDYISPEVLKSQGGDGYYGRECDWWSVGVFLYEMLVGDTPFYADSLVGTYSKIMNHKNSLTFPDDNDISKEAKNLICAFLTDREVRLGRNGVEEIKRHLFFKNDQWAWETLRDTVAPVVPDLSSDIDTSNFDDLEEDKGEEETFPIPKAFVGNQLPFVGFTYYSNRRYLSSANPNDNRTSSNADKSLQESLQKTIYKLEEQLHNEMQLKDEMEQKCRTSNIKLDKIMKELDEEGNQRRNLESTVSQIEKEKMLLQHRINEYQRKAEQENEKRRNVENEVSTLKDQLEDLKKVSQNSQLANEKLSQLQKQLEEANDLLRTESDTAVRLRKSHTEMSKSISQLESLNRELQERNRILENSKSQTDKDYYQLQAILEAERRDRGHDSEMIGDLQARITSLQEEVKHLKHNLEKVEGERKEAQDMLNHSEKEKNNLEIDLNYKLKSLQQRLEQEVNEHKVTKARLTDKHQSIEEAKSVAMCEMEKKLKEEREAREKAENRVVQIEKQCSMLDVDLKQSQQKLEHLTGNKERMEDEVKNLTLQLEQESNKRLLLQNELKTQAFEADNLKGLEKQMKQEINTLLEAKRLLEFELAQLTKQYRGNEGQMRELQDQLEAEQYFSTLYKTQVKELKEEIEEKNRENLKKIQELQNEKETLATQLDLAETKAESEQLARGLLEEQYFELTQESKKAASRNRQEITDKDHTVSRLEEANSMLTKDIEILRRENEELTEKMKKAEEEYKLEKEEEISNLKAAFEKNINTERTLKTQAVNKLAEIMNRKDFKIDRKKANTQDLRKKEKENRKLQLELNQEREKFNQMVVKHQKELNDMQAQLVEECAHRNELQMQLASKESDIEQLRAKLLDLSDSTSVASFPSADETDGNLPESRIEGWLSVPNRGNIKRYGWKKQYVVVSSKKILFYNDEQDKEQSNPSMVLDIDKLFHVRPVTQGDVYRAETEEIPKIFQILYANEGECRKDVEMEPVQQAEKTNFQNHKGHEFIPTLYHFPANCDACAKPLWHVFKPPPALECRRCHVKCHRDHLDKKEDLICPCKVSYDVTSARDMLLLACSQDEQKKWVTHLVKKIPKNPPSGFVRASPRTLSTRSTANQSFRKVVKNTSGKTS
T17 sequence (P45983 whole entry): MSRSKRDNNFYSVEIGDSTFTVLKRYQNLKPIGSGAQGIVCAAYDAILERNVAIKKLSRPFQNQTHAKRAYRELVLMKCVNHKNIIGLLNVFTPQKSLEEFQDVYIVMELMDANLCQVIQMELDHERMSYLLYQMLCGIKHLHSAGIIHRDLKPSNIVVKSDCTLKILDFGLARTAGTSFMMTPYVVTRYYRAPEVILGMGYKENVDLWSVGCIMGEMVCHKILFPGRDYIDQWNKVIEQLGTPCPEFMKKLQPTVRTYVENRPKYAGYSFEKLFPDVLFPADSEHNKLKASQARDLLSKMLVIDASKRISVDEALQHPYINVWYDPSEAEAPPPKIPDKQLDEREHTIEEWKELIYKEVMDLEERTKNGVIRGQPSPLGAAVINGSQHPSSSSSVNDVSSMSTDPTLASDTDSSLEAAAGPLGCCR
T10 sequence (P53355 whole entry): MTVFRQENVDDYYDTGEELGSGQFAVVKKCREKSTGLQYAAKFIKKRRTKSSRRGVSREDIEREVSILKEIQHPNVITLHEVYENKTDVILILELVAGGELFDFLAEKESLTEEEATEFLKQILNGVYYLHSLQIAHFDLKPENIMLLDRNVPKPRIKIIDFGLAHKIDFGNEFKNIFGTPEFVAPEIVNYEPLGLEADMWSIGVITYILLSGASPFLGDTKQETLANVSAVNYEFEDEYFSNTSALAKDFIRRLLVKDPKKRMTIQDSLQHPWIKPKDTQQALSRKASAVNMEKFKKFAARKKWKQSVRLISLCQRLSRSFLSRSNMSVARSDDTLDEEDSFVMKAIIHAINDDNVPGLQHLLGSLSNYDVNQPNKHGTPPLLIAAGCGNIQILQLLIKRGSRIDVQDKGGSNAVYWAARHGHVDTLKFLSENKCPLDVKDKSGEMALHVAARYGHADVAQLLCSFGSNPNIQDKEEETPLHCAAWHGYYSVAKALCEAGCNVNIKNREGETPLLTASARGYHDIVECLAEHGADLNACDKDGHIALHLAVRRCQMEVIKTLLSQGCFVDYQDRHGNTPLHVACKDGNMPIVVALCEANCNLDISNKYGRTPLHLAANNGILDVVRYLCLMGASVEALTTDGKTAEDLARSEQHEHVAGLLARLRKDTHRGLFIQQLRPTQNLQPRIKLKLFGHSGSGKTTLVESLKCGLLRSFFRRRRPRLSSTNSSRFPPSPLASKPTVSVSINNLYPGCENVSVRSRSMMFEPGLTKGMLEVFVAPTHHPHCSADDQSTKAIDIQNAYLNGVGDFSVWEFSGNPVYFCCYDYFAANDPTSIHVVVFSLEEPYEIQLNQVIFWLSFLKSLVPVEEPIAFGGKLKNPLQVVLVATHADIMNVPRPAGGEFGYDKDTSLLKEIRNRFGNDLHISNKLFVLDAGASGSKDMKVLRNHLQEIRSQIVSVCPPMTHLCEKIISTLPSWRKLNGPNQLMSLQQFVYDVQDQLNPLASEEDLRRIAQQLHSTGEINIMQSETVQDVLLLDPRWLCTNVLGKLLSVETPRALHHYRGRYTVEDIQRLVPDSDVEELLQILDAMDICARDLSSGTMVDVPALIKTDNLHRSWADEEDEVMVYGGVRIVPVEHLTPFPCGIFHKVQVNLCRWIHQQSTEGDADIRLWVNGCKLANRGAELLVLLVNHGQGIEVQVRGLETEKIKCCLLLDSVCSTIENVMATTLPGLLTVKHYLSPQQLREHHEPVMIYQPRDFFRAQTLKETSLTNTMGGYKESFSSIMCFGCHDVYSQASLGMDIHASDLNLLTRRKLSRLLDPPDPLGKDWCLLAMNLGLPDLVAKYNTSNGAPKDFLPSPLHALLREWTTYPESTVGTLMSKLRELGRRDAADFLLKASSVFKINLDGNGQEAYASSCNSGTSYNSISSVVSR
T3 sequence (P49841 whole entry): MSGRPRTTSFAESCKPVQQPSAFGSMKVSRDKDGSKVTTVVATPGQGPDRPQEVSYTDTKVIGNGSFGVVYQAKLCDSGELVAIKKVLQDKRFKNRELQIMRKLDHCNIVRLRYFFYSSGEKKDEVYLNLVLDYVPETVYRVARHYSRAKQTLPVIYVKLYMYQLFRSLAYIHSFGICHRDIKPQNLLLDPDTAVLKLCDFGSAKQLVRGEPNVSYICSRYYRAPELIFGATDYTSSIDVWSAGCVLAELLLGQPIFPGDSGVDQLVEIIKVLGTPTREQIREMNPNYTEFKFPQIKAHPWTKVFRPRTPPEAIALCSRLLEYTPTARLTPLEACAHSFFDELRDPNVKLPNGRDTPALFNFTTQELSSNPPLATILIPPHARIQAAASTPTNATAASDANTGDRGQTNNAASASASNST

For `O=C1C=CC2(C=C1)OCC(Cc1cc(C(F)(F)F)cc(C(F)(F)F)c1)C(=O)N2c1ccccc1` (racemic) [1c], the “% Residual Activity at 30 μM” value in experiment [1] is given as 58.0 ± 0.9%; in experiment [2] it was 58.3 ± 0.7%; in experiment [3], 107.5 ± 1.9%. In addition, the “inhibitory activity on GSK-3β” value in experiment [3] (30 μM) is listed as “did not show any inhibitory activity”.
With `O=C1C=CC2(C=C1)OCC(Cc1cn(-c3cccc(Cl)c3)nn1)C(=O)N2c1ccccc1` (centres unmarked) [2d, 3-((1-(3-Chlorophenyl)-1H-1,2,3-triazol-4-yl)methyl)-5-phenyl-1-oxa-5-azaspiro[5.5]undeca-7,10-diene-4,9-dione], the “% Enzyme Activity (relative to DMSO controls)” value is recorded as 90.32% in experiment [4]; 58.64% in [5] (setting [23]); 86.58% in [6]; 106.77% in experiment [7]; 54.15% in experiment [8] (setting [23]); 62.24% in experiment [9] (setting [23]). In addition, the “% Enzyme Activity (relative to DMSO controls)” value in [10] (setting [23]) came to 73.41%; in experiment [11] (setting [23]), 101.05%; in experiment [12], 84.84%; in [13], 74.47%; in [14] it was 98.59%; in experiment [15] it was 87.90%. Moreover, the “% Enzyme Activity (relative to DMSO controls)” value in experiment [16] came out at 123.51%; in [17] (setting [23]), 82.67%; in experiment [18], 101.99%; in experiment [19], 66.48%; in experiment [21], 100.73%. For the same compound, the remaining activity at 30 µM was 92.1% in experiment [4] (setting [22]); 59.3% in experiment [5] (setting [24]); 59 ± 0.5% in experiment [5] (setting [25]); 86.3% in experiment [6] (setting [22]); 107% in experiment [7] (setting [22]); 54.4% in experiment [8] (setting [24]). For the same compound, the remaining activity at 30 µM in [8] (setting [25]) is 54.3 ± 0.1%; in [9] (setting [24]), 63%; in experiment [9] (setting [25]), 62.6 ± 0.5%; in experiment [10] (setting [24]), 75.8%; in experiment [10] (setting [25]), 74.6 ± 1.7%; in experiment [11] (setting [24]), 105%. The remaining activity at 30 µM in experiment [11] (setting [25]) worked out at 103 ± 3.1%; in [12] (setting [22]), 86%; in [13] (setting [22]) it was 75.9%; in [14] (setting [22]), 99.8%; in [15] (setting [22]) it was 88.2%; in [16] (setting [22]), 122%. Besides, the remaining activity at 30 µM is 82.7% in experiment [17] (setting [24]); 82.7 ± 0.1% in [17] (setting [25]); 106% in [18] (setting [22]); 68% in [20]; 101% in [21] (setting [22]).
